From patent US7109323B2, “Formulation of boronic acid compounds” (The United States of America as represented by the …, priority 2001, dated 2006) come the findings set out here.

Holding throughout (assay type): physicochemical
Data set [1] is described as follows: reconstitution / dissolution of the formulation in aqueous solvents. Conditions: 0.9% w/v saline, saline or isotonic, thermodynamic from solid; read-out: solubility (concentration dissolved). The protocol:
One sample was reconstituted with 2 mL of water. Dissolution was complete within 1-2 minutes of shaking. The entire solution was transferred to a volumetric flask, diluted, and analyzed by HPLC for content of N-(2-pyrazine)carbonyl-L-phenylalanine-L-leucine boronic acid. The total drug content was 1.09 mg. A second sample was reconstituted with 1 mL of propylene glycol:EtOH:H2O, 40:10:50. Dissolution was complete with 1 minute of shaking. The total drug content was 1.11 mg.
The lyophilized formulation was also reconstituted with 0.9% w/v saline. The lyophilized material dissolved readily at concentrations up to 6 mg/mL.
(§1) The lyophilized product was prepared according to Example 1, and samples (2.5 mg/vial) were reconstituted with 2.5 mL of 0.9% w/v sterile saline. […] No special care was taken to protect the solution from light.

Data set [2] is described as follows: storage stability determined by HPLC analysis. The protocol:
The product was obtained as a white amorphous powder. The product was stable for more than 2 years when stored at −20° C., as determined by HPLC analysis (purity >97%). When stored at 2-8° C., the product was not stable for longer than 3-6 months.
When stored at 2-8° C., the liquid formulation was not stable for longer than 6 months, as determined by HPLC analysis.
The lyophilized product was prepared according to Example 1 and stored at 5° C., ambient temperature, 37° C., and 50° C. Stability was monitored for approximately 18 months by periodically reconstituting a sample and analyzing the entire contents of the bottle by HPLC.
as §1

The nature of data set [3]: dynamic vapor sorption studies. Conditions: crystalline product.

SMILES strings stand for the structures. Where only a bound is given, the exact number is not on record here.

As to `CC(C)C[C@H](NC(=O)[C@H](Cc1ccccc1)NC(=O)c1cnccn1)B(O)O` [N-(2-pyrazine)carbonyl-L-phenylalanine-L-leucine boronic acid], in data set [1], the solubility is below 1000 µg/mL. For the same compound, the “time stable on storage” value was 3-6 months in data set [2] (stored at 2-8° C., HPLC analysis) and “more than 2 years” in data set [2] (stored at −20° C., HPLC analysis (purity >97%)).
As for `CC(C)C[C@H](NC(=O)[C@H](Cc1ccccc1)NC(=O)c1cnccn1)B1OB([C@H](CC(C)C)NC(=O)[C@H](Cc2ccccc2)NC(=O)c2cnccn2)OB([C@H](CC(C)C)NC(=O)[C@H](Cc2ccccc2)NC(=O)c2cnccn2)O1` [N-(2-pyrazine)carbonyl-L-phenylalanine-L-leucine boroxine], in data set [3], the hygroscopicity entry was “non-hygroscopic”.
